Article PMC8566587, “Selection for constrained peptides that bind to a single target protein” (Nature Communications, 2021)
Where a SMILES comes first, the peptide text is derived from it.

Columns and labels:
[1] = molecular target: SARS-CoV-2 Spike RBD (RBD296-531) (Severe acute respiratory syndrome coronavirus 2, UniProt P0DTC2); assay: biochemical; format: binding
[2] = cited from earlier work
Source text: The genetic circuit is based on a split intein and σ factor to which the peptide library is fused. This could be used to screen/select libraries of linear peptides or protein domains for binding to the target. Here, we decided to use modified peptides because they have advantages as pharmaceuticals, including more compact structures that are resistant to proteolysis and permeate the mammalian cell membrane. Modified peptides have been approved for the treatment of cancer, inflammation, and infection and increasing numbers are entering all phases of clinical development for diverse indicatio ...

[3] = system: Spike RBD; format: cell-based, SARS-CoV-2

Q: With CC[C@H](C)[C@H](NC(=O)[C@H]1NC(=O)[C@H](C(C)C)NC(=O)[C@H]([C@@H](C)CC)NC(=O)[C@H](CCC(=O)O)NC(=O)[C@@H](NC(=O)[C@H](Cc2c[nH]c3ccccc23)NC(=O)[C@H](CCC(=O)O)NC(=O)CNC(=O)[C@H](Cc2ccc(O)cc2)NC(=O)[C@H](CCCCN)NC(=O)[C@H](CS)NC(=O)[C@@H](NC(=O)CN)C(C)C)CSC1CC(=O)O)C(=O)O (stereo partly shown) [AMK-1057] (HELM PEPTIDE1{G.V.C.K.Y.G.E.W.C.E.I.V.[O=C(O)CC([C@H](N[*:1])C(=O)[*:2])[*:3]].I}$PEPTIDE1,PEPTIDE1,9:R3-13:R3$$$V2.0) as the compound, how does the Kd [1] read?
A: Its Kd is 990 ± 5 nM.

Q: For Enfuvirtide, which “proteolysis (in words)” value [2] is on record?
A: Its value is “suffers from rapid proteolysis”.

Q: Which “fluorescence output (in words)” value [3] does the source give for VCKYGEWCEIVEI [Pap2c_1] here?
A: The value was “strong fluorescence output”.

Q: And the “specificity for Spike RBD as compared to Mdm2*” value [3]?
A: Its value is 14 fold.
